For data set [1], the target named is T1, Proprotein convertase subtilisin/kexin type 9 (Homo sapiens, UniProt Q8NBP7). Briefly: Inhibition of human PCSK9 using Alexa Fluor […] as substrate incubated for 2 hrs by FRET assay.
A further data set has as its system Mast cell. Briefly: Induction of rat mast cells degranulation activity at 100 uM incubated for 30 mins. In kind it is functional, tissue-based.
The target in data set [2] is T1, Proprotein convertase subtilisin/kexin type 9. In words: Inhibition of human PCSK9 using Alexa Fluor […] as substrate incubated for 2 hrs by FRET plus assay.
Data set [3] in a line: Tmax in Wistar Han rat at 5 mg/kg, id measured upto 24 hrs by LC-MS/MS analysis. The format is ADME, organism-based. The settings on record: in vivo.
Data set [4] can be described thus: Protein binding in Wistar Han rat at 1 mg/kg, iv measured upto 24 hrs by LC-MS/MS analysis. In kind it is ADME, organism-based. Particulars: in vivo, read-out: PB (converted).
Data set [5] in a line: Stability of the compound assessed as bovine pancreatic trypsin-mediated parent compound depletion by measuring parent compound remaining after 1 hr by LC-MS/MS analysis. In kind it is ADME, Bos taurus. Particulars: cattle, read-out: Stability.
In data set [6] the target is T1, Proprotein convertase subtilisin/kexin type 9. Briefly: Inhibition of human PCSK9 using Alexa Fluor […] as substrate incubated for 2 hrs by FRET ultra assay.
Data set [7] in a line: AUC extrapolated in Wistar Han rat at 5 mg/kg, id measured upto 24 hrs by LC-MS/MS analysis. In kind it is ADME, organism-based. Particulars: in vivo, other.
Data set [8] can be described thus: AUC(0 to infinity) in Wistar Han rat at 1 mg/kg, iv measured upto 24 hrs by LC-MS/MS analysis. The format is ADME, organism-based. Set-up: route intravenous, dose 1 mg/kg, time <=24. The settings on record: in vivo.
For data set [9], the species on record is Sus scrofa. Briefly: Stability of the compound assessed as porcine pepsin-mediated parent compound depletion by measuring parent compound remaining after 1 hr by LC-MS/MS analysis.
Data set [10] can be described thus: Volume of distribution at steady state in Wistar Han rat at 1 mg/kg, iv measured upto 24 hrs by LC-MS/MS analysis. In kind it is ADME, organism-based. Particulars: in vivo, read-out: Vdss.
Data set [11] is described as follows: Clearance in Wistar Han rat at 1 mg/kg, iv measured upto 24 hrs by LC-MS/MS analysis. In kind it is ADME, organism-based. The settings on record: in vivo.
Data set [12] can be described thus: Cmax in Wistar Han rat at 5 mg/kg, id measured upto 24 hrs by LC-MS/MS analysis. In kind it is ADME, organism-based. Set-up: dose 5 mg/kg, time <=24. Particulars: in vivo.
The nature of data set [13]: AUC(0 to infinity) in Wistar Han rat at 5 mg/kg, id measured upto 24 hrs by LC-MS/MS analysis. The format is ADME, organism-based. Set-up: dose 5 mg/kg, time <=24. The settings on record: in vivo.
Data set [14] is described as follows: Half life in Wistar Han rat at 1 mg/kg, iv measured upto 24 hrs by LC-MS/MS analysis. The format is ADME, organism-based. The settings on record: in vivo.
The species named for data set [15] is Sus scrofa. Briefly: Stability of the compound assessed as porcine pancreatic elastase-mediated parent compound depletion by measuring parent compound remaining after 1 hr by LC-MS/MS analysis.
A short description of data set [16]: Bioavailability in Wistar Han rat at 5 mg/kg, id measured upto 24 hrs by LC-MS/MS analysis. Particulars: in vivo. The format is ADME, organism-based.
Another data set is filed under the species Bos taurus. In words: Stability of the compound assessed as bovine pancreas alpha chymotrypsin-mediated parent compound depletion by measuring parent compound remaining after 1 hr by LC-MS/MS analysis.
Data set [17] can be described thus: Unbound clearance in Wistar Han rat at 1 mg/kg, iv measured upto 24 hrs by LC-MS/MS analysis. The format is ADME, organism-based. The settings on record: in vivo.
The target of data set [18] is T2, Solute carrier organic anion transporter family member 1B1 (Homo sapiens, UniProt Q9Y6L6).
T2 sequence (Q9Y6L6 whole entry): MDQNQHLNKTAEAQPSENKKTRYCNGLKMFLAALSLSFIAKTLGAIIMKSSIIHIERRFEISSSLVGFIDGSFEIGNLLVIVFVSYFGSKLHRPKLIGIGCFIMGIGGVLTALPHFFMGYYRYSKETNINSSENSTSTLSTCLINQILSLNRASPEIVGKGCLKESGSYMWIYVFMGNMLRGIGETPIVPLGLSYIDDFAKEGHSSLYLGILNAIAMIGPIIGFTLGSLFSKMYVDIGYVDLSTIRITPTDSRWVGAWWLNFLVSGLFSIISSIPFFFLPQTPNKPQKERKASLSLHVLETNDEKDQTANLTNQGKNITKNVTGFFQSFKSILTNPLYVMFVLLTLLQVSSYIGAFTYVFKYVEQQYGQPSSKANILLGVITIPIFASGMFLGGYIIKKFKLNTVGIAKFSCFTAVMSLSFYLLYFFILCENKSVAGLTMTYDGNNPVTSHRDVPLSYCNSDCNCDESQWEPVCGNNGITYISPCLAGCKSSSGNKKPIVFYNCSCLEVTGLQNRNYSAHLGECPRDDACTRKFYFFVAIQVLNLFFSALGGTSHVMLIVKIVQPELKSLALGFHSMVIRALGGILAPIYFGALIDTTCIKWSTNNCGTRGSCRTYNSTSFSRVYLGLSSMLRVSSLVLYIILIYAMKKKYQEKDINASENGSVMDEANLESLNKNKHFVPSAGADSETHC
Briefly: Inhibition of OATP1B1 (unknown origin) expressed in HEK293 cells assessed as reduction in OATP 1B1-mediated [3H]-pitavastatin uptake preincubated for 30 mins followed by [3H]-pitavastatin addition and measured after 2 mins by liquid scintillation analysis. In kind it is cell-based.

Structures are written as SMILES. Calls of active or inactive are those of the source. The calls are words filed in the database; no cut-off is given here. Some results are limits rather than exact numbers.

T1 sequence (Q8NBP7 31-152 limits assumed): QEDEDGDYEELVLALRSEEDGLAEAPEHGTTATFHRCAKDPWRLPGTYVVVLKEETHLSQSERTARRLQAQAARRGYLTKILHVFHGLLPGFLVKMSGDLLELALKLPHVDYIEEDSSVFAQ
T1 sequence (Q8NBP7 153-692 limits assumed): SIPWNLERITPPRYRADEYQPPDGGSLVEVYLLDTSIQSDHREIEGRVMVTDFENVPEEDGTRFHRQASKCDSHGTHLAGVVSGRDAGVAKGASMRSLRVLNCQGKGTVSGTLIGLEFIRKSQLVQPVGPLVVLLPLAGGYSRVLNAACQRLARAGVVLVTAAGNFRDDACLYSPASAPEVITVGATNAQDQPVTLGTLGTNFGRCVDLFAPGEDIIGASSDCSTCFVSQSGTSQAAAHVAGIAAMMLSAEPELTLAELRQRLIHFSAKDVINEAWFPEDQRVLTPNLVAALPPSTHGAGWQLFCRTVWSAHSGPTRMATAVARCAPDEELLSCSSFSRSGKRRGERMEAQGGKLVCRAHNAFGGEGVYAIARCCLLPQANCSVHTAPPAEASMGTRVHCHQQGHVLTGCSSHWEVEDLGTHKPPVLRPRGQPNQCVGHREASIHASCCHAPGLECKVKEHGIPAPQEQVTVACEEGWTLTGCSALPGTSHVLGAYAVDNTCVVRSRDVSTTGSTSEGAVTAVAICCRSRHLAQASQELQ

`COc1ccc(C[C@@H]2NC(=O)[C@H]([C@H](C)OC)NC(=O)[C@@H]3[C@@H]4CCN3C(=O)[C@H](Cc3c[nH]c5ccc(F)cc35)NC(=O)[C@H](Cc3cccc(c3)C/C=C\CO4)NC(=O)[C@H](C)NC(=O)[C@H](CN)NC(=O)CCSCc3cccc(c3)CSCCNC(=O)[C@]3(C)CCCN3C2=O)cc1` returned a Ki in data set [1] of 4.36 nM.

As for `COc1ccc(C[C@@H]2NC(=O)[C@H]([C@H](C)OC)NC(=O)[C@@H]3[C@@H]4CCN3C(=O)[C@H](Cc3c[nH]c5ccc(F)cc35)NC(=O)[C@H](Cc3cccc(c3)C/C=C/CO4)NC(=O)[C@H](C)NC(=O)[C@H](CN)NC(=O)CCSCc3cccc(c3)CSCCNC(=O)[C@]3(C)CCCN3C2=O)cc1`, in the data set with Mast cell, the result was inactive. The Ki in data set [2] came out at 0.23 nM; in [1], 0.45 nM.

In turn, `COc1ccc(C[C@@H]2NC(=O)[C@H]([C@@H](C)OC)NC(=O)[C@@H]3[C@@H]4CCN3C(=O)[C@H](Cc3c[nH]c5ccc(F)cc35)NC(=O)[C@H](Cc3cccc(c3)C/C=C\CO4)NC(=O)[C@@H](C)NC(=O)[C@H](C)NC(=O)CCSCc3cccc(c3)CSCCNC(=O)[C@]3(C)CCCN3C2=O)cc1` showed a Ki in data set [1] of 4.83 nM.

Regarding `COc1ccc(C[C@@H]2NC(=O)[C@H]([C@@H](C)O)NC(=O)[C@@H]3[C@@H]4CCN3C(=O)[C@@H]3Cc5cn(c6ccc(F)cc56)Cc5cn(nn5)-c5cc(cc(c5)CSCCC(=O)N[C@@H](CN)C(=O)N[C@H](C)C(=O)N[C@@H](Cc5cccc(c5)C/C=C/CO4)C(=O)N3)CSCCNC(=O)[C@]3(C)CCCN3C2=O)cc1`, the Tmax in [3] was found to be 0.25 h. In data set [4], the fraction unbound at 24 h is 0.144. In addition, the outcome in the data set with Mast cell was inactive. Moreover, the Ki was 0.00826 nM in [2], 0.0094 nM in [6] and less than 0.129 nM in [1]. For the same compound, the remaining at 1 h in [5] worked out at 100%. For the same compound, the “%AUCextra” value in [7] was 23.6%. For the same compound, the AUC(0-inf) in [8] was 0.964 µM·h; in data set [13] it was 0.0215 µM·h. Also, the Stability in the data set listed under Sus scrofa [9] stood at 100%; in the data set listed under Sus scrofa [15], 96.5%; in the data set listed under Bos taurus, 90%. Also, the Vd in [10] came to 3 L/kg. In data set [11], this compound registered a clearance of 12.3 mL/min/kg. In [12], the Cmax stood at 12.4 nM. Also, the half-life in [14] was 5.9 h. Moreover, in [16], the bioavailability came out at 0.45%. The CL free in data set [17] came to 85 mL/min/kg. Also, in data set [18], the EC50 came to 600 nM.

Regarding `COc1ccc(C[C@@H]2NC(=O)[C@H]([C@@H](C)OC)NC(=O)[C@@H]3[C@@H]4CCN3C(=O)[C@H](Cc3c[nH]c5ccc(F)cc35)NC(=O)[C@H](Cc3cccc(c3)C/C=C\CO4)NC(=O)[C@@H](CN)NC(=O)[C@H](C)NC(=O)CCSCc3cccc(c3)CSCCNC(=O)[C@]3(C)CCCN3C2=O)cc1`, the results for the Ki in data set [2] and in data set [1] were 2.25 nM and 1.16 nM, respectively.

For the compound `COc1ccc(C[C@@H]2NC(=O)[C@H]([C@H](C)O)NC(=O)[C@@H]3[C@@H]4CCN3C(=O)[C@@H]3Cc5cn(c6ccc(F)cc56)Cc5cn(nn5)-c5cc(cc(c5)CSCCC(=O)N[C@@H](C)C(=O)N[C@@H](CNC(=O)CCOCCOCCNC(=O)CCCC[C@@H]5SC[C@H]6NC(=O)N[C@@H]56)C(=O)N[C@@H](Cc5cccc(c5)C/C=C/CO4)C(=O)N3)CSCCNC(=O)[C@]3(C)CCCN3C2=O)cc1`, the Ki in data set [2] was less than 0.01 nM; in data set [6], 0.0006 nM; in data set [1] it was less than 0.129 nM.

As to `COc1ccc(C[C@@H]2NC(=O)[C@H]([C@@H](C)O)NC(=O)[C@@H]3[C@@H]4CCN3C(=O)[C@@H]3Cc5cn(c6ccc(F)cc56)Cc5cn(nn5)-c5cc(cc(c5)CSCCC(=O)N[C@@H](CNC(=O)CCOCCOCCN)C(=O)N[C@H](C)C(=O)N[C@@H](Cc5cccc(c5)C/C=C/CO4)C(=O)N3)CSCCNC(=O)[C@]3(C)CCCN3C2=O)cc1`, in data set [3], the Tmax was found to be 0 h. The outcome with Mast cell was inactive. The Ki was 0.00813 nM in [6] and less than 0.129 nM in [1]. Further, the “%AUCextra” value in data set [7] is 19.6%. Also, the Cmax in [12] is 53.3 nM. The AUC(0-inf) in data set [13] stood at 0.0683 µM·h. In data set [16], the bioavailability stood at 1%. In [18], the EC50 came to 6000 nM.

With `COc1ccc(C[C@@H]2NC(=O)[C@H]([C@@H](C)O)NC(=O)[C@@H]3[C@@H]4CCN3C(=O)[C@@H]3Cc5cn(c6ccc(F)cc56)Cc5cn(nn5)-c5cc(cc(c5)CSCCC(=O)N[C@@H](CN)C(=O)N[C@H](C)C(=O)N[C@@H](Cc5cccc(c5)C/C=C\CO4)C(=O)N3)CSCCNC(=O)[C@]3(C)CCCN3C2=O)cc1`, the outcome in the data set on Mast cell was inactive. Also, the Ki in data set [2] was determined as 0.037 nM.

Consider `COc1ccc(C[C@@H]2NC(=O)[C@H]([C@@H](C)OC)NC(=O)[C@@H]3[C@@H]4CCN3C(=O)[C@H](Cc3c[nH]c5ccc(F)cc35)NC(=O)[C@H](Cc3cccc(c3)C/C=C/CO4)NC(=O)[C@@H](CN)NC(=O)[C@H](C)NC(=O)CCSCc3cccc(c3)CSCCNC(=O)[C@]3(C)CCCN3C2=O)cc1`, for which the Ki in [2] amounted to 0.16 nM; in [1] it was 0.2 nM.

`COc1ccc(C[C@@H]2NC(=O)[C@H]([C@@H](C)OC)NC(=O)[C@@H]3[C@@H]4CCN3C(=O)[C@H](Cc3c[nH]c5ccc(F)cc35)NC(=O)[C@H](Cc3cccc(c3)CCCCO4)NC(=O)[C@@H](C)NC(=O)[C@H](C)NC(=O)CCSCc3cccc(c3)CSCCNC(=O)[C@]3(C)CCCN3C2=O)cc1` returned a Ki in data set [1] of 2.17 nM.

On to `COc1ccc(C[C@@H]2NC(=O)[C@H]([C@@H](C)O)NC(=O)[C@@H]3[C@@H]4CCN3C(=O)[C@H](Cc3c[nH]c5ccc(F)cc35)NC(=O)[C@H](Cc3cccc(c3)C/C=C/CO4)NC(=O)[C@@H](C)NC(=O)[C@H](C)NC(=O)CCSCc3cccc(c3)CSCCNC(=O)[C@]3(C)CCCN3C2=O)cc1`, for which the Ki in data set [2] came out at 0.25 nM; in data set [1], 0.43 nM.

`COc1ccc(C[C@@H]2NC(=O)[C@H]([C@@H](C)O)NC(=O)[C@@H]3[C@@H]4CCN3C(=O)[C@H](Cc3c[nH]c5ccc(F)cc35)NC(=O)[C@H](Cc3cccc(c3)C/C=C\CO4)NC(=O)[C@@H](C)NC(=O)[C@H](C)NC(=O)CCSCc3cccc(c3)CSCCNC(=O)[C@]3(C)CCCN3C2=O)cc1` yielded an inhibition constant (Ki) in data set [1] of 4.66 nM.

Source of the values: ChEMBL document CHEMBL5034034 (J Med Chem, 2021).
